Laboratory results from ChEMBL document CHEMBL3508693 (2016).

Assays:
CYP3A4 = CYP3A4 (Homo sapiens, UniProt P08684); assay: Inhibitory activity of 200 µM SPP100 on cDNA-derived CYP3A4 enzyme in microsome prepared from human lymphoblastoid cell line; assay type: ADME, microsomes; design: conc 200 uM, interact cpd conc 120 uM; settings: probe testosterone (120 uM)
CYP2C9 = CYP2C9 (Homo sapiens, UniProt P11712); assay: Inhibitory activity of 200 uM SPP100 on 220 Pmoles of cDNA-derived CYP2C9 enzyme in microsome prepared from human lymphoblastoid cell line; assay type: ADME, microsomes; design: conc 200 uM, interact cpd conc 6 uM; settings: probe diclofenac
Sequence of CYP2C9 (P11712 whole entry): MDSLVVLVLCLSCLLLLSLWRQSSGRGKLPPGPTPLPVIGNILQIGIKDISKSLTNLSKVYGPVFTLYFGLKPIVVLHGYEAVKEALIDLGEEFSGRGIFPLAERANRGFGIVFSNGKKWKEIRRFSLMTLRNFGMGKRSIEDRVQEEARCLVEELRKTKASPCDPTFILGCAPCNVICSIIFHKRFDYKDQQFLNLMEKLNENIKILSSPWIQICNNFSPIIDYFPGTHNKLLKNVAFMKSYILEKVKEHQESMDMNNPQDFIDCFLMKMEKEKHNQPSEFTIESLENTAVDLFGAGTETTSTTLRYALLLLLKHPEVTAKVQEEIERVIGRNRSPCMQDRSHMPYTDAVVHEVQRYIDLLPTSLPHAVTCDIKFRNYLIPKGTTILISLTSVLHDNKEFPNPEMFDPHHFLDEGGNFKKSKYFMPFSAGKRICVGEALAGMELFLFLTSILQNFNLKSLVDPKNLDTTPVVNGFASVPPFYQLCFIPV

CYP2D6 = CYP2D6 (Homo sapiens, UniProt P10635); assay: Inhibitory activity of 200 µM SPP100 on cDNA-derived CYP2D6 enzyme in microsome prepared from human lymphoblastoid cell line; assay type: ADME, microsomes; design: conc 200 µM, interact cpd conc 10 uM; settings: probe bufuralol (10 uM)
Sequence of CYP2D6 (P10635 whole entry): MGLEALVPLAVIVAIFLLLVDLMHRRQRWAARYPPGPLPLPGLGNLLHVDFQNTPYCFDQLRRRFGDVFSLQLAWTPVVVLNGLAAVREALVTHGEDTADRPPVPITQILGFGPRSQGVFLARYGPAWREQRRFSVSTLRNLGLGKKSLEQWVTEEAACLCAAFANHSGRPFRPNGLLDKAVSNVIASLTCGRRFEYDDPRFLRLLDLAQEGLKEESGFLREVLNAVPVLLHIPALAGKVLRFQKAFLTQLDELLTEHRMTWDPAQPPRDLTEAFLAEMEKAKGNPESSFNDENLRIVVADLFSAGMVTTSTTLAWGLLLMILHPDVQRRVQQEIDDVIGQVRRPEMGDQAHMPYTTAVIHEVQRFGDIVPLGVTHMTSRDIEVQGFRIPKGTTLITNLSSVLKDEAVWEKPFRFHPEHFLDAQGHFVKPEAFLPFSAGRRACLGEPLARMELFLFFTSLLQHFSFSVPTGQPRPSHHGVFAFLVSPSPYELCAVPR

[1] = %Unchanged aliskiren in urine following 10 day repeated oral administration of [14C] aliskiren hemifumarate at 100 mg.Kg-1 level studied in rat; assay type: ADME, organism-based, Albino HAN:WIST; settings: in vivo, 240 h
CYP1A2 = molecular target: T1, CYP1A2 (Homo sapiens, UniProt P05177); assay: Inhibitory activity of 200 uM SPP100 on 548 Pmoles of cDNA-derived CYP1A2 enzyme in microsome prepared from human lymphoblastoid cell line; assay type: ADME, microsomes; design: conc 200 uM, interact cpd conc 50 uM; settings: probe phenacetin
T1 sequence (P05177 whole entry): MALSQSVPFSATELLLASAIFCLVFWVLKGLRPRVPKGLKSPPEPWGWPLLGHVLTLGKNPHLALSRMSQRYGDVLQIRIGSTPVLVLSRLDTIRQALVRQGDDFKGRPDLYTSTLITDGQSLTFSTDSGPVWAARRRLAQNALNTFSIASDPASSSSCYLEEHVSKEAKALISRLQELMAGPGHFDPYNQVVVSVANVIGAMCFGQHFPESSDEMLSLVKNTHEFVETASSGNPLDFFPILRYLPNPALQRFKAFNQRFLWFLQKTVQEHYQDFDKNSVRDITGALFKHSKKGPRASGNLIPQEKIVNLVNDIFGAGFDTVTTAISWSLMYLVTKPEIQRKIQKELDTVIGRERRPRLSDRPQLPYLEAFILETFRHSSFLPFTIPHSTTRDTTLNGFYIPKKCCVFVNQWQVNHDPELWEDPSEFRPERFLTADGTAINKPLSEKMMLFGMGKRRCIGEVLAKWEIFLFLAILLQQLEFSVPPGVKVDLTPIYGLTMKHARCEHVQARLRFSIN

[2] = Apparent terminal half-life (0-168h) of total radioactivity following single intravenous administration of [14C] aliskiren hemifumarate at 1 mg.Kg-1 level in marmoset; assay type: ADME, organism-based, Callithrix jacchus, Plasma; settings: in vivo
[3] = Mean excretion of radioactivity (48-72h) in urine and faeces following single intravenous dose of 10 mg.Kg-1 [14C] aliskiren hemifumarate in mouse; assay type: ADME, organism-based, TgRasH2, Urine/Feces; settings: in vivo
[4] = Tmax of radioactivity following repeated oral administration of [14C] aliskiren hemifumarate at 100 mg.Kg-1 level studied after 2h of dosing on day 10 in rat; assay type: ADME, organism-based, Albino HAN:WIST; settings: in vivo
[5] = Excretion (0-24h) of radioactivity in urine following intravenous administration of [14C] aliskiren hemifumarate at 1 mg.Kg-1 level in marmoset; assay type: ADME, organism-based, Callithrix jacchus; settings: in vivo
[6] = Total excretion (0-72h) of radioactivity in urine, faeces and cage wash following single oral dose of 500 mg.Kg-1 [14C] aliskiren hemifumarate in mouse; assay type: ADME, organism-based, TgRasH2, Urine/Feces; settings: in vivo
[7] = Excretion of radioactivity (0-72h) in faeces following single intravenous dose of 10 mg.Kg-1 [14C] aliskiren hemifumarate in mouse; assay type: ADME, organism-based, TgRasH2, Feces; settings: in vivo
[8] = Mean excretion of radioactivity (0-24h) in urine and faeces following single oral dose of 500 mg.Kg-1 [14C] aliskiren hemifumarate in mouse; assay type: ADME, organism-based, TgRasH2, Urine/Feces; settings: in vivo
[9] = Excretion of radioactivity (24-48h) in faeces following single intravenous dose of 10 mg.Kg-1 [14C] aliskiren hemifumarate in mouse; assay type: ADME, organism-based, TgRasH2, Feces; settings: in vivo
[10] = AUC/dose (0-168h) of total radioactivity following single oral administration of [14C] aliskiren hemifumarate at 3 mg.Kg-1 level in marmoset; assay type: ADME, organism-based, Callithrix jacchus, Plasma; settings: in vivo
[11] = Total excretion (0-96h) of radioactivity in urine, faeces and cage wash following single intravenous dose of 10 mg.Kg-1 [14C] aliskiren hemifumarate in mouse; assay type: ADME, organism-based, Urine/Feces; settings: rat, in vivo
[12] = Excretion of radioactivity (48-72h) in faeces following single intravenous dose of 10 mg.Kg-1 [14C] aliskiren hemifumarate in rat; assay type: ADME, organism-based, Albino HAN:WIST, Feces; settings: in vivo
[13] = Apparent terminal elimination half-life (0-96h) of unlabeled aliskiren hemifumarate following intravenous administration of aliskiren hemifumarate at 10 mg.Kg-1 level in rat; assay type: ADME, organism-based; settings: Albino HAN:WIST, plasma
[14] = AUC (0-24h)/dose of aliskiren hemifumarate following 4 week oral dietary dosing of aliskiren hemifumarate at 1000 mg.Kg-1 level in male mouse; assay type: ADME, organism-based, CB6F1-TGrasH2, Plasma; settings: in vivo
[15] = AUCspec of aliskiren hemifumarate following 2 week oral dosing of aliskiren hemifumarate at 10 mg.Kg-1 level studied on […] in male Callithrix jacchus; assay type: ADME, organism-based, Plasma; settings: marmoset, in vivo, 336 h
[16] = Tmax of aliskiren hemifumarate following single dosing of SPP100B oral solution at 40 mg level studied on day 1 in men; assay type: ADME, organism-based; settings: male, human, plasma
[17] = Hepatic blood flow (0-168h) of unlabeled aliskiren hemifumarate following single intravenous administration of aliskiren hemifumarate at 1 mg.Kg-1 level in marmoset; assay type: ADME, organism-based, Callithrix jacchus, Liver; settings: in vivo
[18] = Effect of 2 week oral dosing of aliskiren hemifumarate at 100 mg.Kg-1 level on plasma magnesium level in female Callithrix jacchus; assay type: toxicity, organism-based; settings: marmoset, 336 h
[19] = Cmaxspec of aliskiren hemifumarate following 2 week oral dosing of aliskiren hemifumarate at 100 mg.Kg-1 level studied on day 14 in male Callithrix jacchus; assay type: ADME, organism-based, Plasma; settings: marmoset, in vivo, 336 h
[20] = Cmax of aliskiren hemifumarate following single dosing of SPP100B oral solution at 80 mg level studied on day 1 in men; assay type: ADME, organism-based; settings: male, human, plasma
[21] = Cmax/dose (0-96h) of unlabeled aliskiren hemifumarate following intravenous administration of aliskiren hemifumarate at 10 mg.Kg-1 level in rat; assay type: ADME, organism-based, Albino HAN:WIST, Plasma; settings: in vivo
[22] = AUCspec of aliskiren hemifumarate following 2 week oral dosing of aliskiren hemifumarate at 10 mg.Kg-1 level studied on day 1 in female Callithrix jacchus; assay type: ADME, organism-based, Plasma; settings: marmoset, in vivo, 336 h
[23] = Cmaxspec of aliskiren hemifumarate following 2 week oral dosing of aliskiren hemifumarate at 10 mg.Kg-1 level studied on day 1 in female Callithrix jacchus; assay type: ADME, organism-based, Plasma; settings: marmoset, in vivo, 336 h
[24] = Tmax of aliskiren hemifumarate following 2 week oral dosing of aliskiren hemifumarate at 50 mg.Kg-1 level studied on day 14 in female Callithrix jacchus; assay type: ADME, organism-based; settings: marmoset, plasma
[25] = AUC(0-24h) of aliskiren hemifumarate following 2 week oral dosing of aliskiren hemifumarate at 10 mg.Kg-1 level studied on day 1 in female Callithrix jacchus; assay type: ADME, organism-based; settings: marmoset, plasma
[26] = AUCspec of aliskiren hemifumarate following 2 week oral dosing of aliskiren hemifumarate at 10 mg.Kg-1 level studied on day 14 in female Callithrix jacchus; assay type: ADME, organism-based, Plasma; settings: marmoset, in vivo, 336 h
[27] = AUC(0-24h) of aliskiren hemifumarate following 2 week oral dosing of aliskiren hemifumarate at 50 mg.Kg-1 level studied on day 14 in female Callithrix jacchus; assay type: ADME, organism-based; settings: marmoset, plasma
[28] = Effect of 4 week oral dietary dosing of aliskiren hemifumarate at 2000 mg.Kg-1 level on histopathology of corpora lutea in female mouse; assay type: toxicity, organism-based, CB6F1-TGrasH2, Corpus luteum; settings: in vivo, 672 h

Sequence of CYP3A4 (P08684 whole entry): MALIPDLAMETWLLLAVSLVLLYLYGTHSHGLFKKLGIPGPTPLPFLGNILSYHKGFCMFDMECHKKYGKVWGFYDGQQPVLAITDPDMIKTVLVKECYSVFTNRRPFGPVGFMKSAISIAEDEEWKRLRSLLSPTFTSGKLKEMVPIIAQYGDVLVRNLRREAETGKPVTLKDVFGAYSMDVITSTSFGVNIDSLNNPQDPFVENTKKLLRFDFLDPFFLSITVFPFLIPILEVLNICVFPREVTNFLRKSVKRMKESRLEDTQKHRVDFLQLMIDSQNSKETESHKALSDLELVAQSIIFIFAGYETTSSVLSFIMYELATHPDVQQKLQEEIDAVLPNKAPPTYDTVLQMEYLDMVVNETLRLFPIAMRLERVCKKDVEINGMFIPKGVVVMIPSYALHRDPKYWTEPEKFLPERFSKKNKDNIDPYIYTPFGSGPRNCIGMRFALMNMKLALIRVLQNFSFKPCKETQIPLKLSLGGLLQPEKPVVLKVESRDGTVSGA

COCCCOc1cc(C[C@@H](C[C@H](N)[C@@H](O)C[C@H](C(=O)NCC(C)(C)C(N)=O)C(C)C)C(C)C)ccc1OC
inhibition at 200 µM (CYP3A4): 11%
inhibition at 200 µM (CYP2C9): 15.8%
inhibition at 200 uM (CYP2D6): 37%
Compound recovery [1]: 43%
inhibition at 200 µM (CYP1A2): -6.4%

COCCCOc1cc(C[C@@H](C[C@H](N)[C@@H](O)C[C@H](C(=O)NCC([14CH3])([14CH3])C(N)=O)C(C)C)C(C)C)ccc1OC.O=C(O)/C=C/C(=O)O
t1/2 [2]: 39.5 h
Radiolabel recovery [3]: 0.9%
Tmax(10) [4]: 218 h
Radiolabel recovery [5]: 0.61%
Radiolabel recovery [6]: 94.44%
Radiolabel recovery [7]: 91.1%
Radiolabel recovery [8]: 69.96%
Radiolabel recovery [9]: 5.69%
AUC normalised [10]: 1.61 (umol.h/L)/(mg/kg)
Radiolabel recovery [11]: 96.2%
Radiolabel recovery [12]: 4.69%

COCCCOc1cc(C[C@@H](C[C@H](N)[C@@H](O)C[C@H](C(=O)NCC(C)(C)C(N)=O)C(C)C)C(C)C)ccc1OC.COCCCOc1cc(C[C@@H](C[C@H](N)[C@@H](O)C[C@H](C(=O)NCC(C)(C)C(N)=O)C(C)C)C(C)C)ccc1OC.O=C(O)/C=C/C(=O)O [ALISKIREN FUMARATE]
half-life [13]: 23.1 h
AUC normalised [14]: 4.82 ((ng/mL).hours)/(mg/kg/day)
AUC normalised [15]: 3.39 ((ug.h.ml-1)/(mg/kg)
Tmax [16]: 1.6 h
Hepatic blood flow [17]: 2.8 L·h/kg
Plasma magnesium_CHANGE_BY [18]: 130%
Cmax normalised [19]: 0.097 (ug/ml)/(mg/kg)
Cmax [20]: 11 ng/mL
Cmax normalised [21]: 2.92 (umol/L)/(mg/kg)
AUC normalised [22]: 2.13 ((ug.h.ml-1)/(mg/kg)
Cmax normalised [23]: 0.396 (ug/ml)/(mg/kg)
Tmax [24]: 1 h
AUC(0-t) at 24 h [25]: 21300 ng·h/mL
AUC normalised [26]: 2.9 ((ug.h.ml-1)/(mg/kg)
AUC at 24 h [27]: 109000 ng·h/mL
Change in corpora lutea [28]: OUTCOME = Absence of corpora lutea. No animals died during the study.
